For 4 compounds, IC50 and Ratio IC50 results are on record in ChEMBL document CHEMBL1938328, “A review on coumarins as acetylcholinesterase inhibitors for Alzheimer's disease” (Bioorg Med Chem, 2012).

Test [1] deals with Acetylcholinesterase (Homo sapiens, UniProt P22303). The test can be described thus: Inhibition of AChE.
Test [2] addresses T1, Acetylcholinesterase (Rattus norvegicus, UniProt P37136).
T1 sequence (P37136 whole entry): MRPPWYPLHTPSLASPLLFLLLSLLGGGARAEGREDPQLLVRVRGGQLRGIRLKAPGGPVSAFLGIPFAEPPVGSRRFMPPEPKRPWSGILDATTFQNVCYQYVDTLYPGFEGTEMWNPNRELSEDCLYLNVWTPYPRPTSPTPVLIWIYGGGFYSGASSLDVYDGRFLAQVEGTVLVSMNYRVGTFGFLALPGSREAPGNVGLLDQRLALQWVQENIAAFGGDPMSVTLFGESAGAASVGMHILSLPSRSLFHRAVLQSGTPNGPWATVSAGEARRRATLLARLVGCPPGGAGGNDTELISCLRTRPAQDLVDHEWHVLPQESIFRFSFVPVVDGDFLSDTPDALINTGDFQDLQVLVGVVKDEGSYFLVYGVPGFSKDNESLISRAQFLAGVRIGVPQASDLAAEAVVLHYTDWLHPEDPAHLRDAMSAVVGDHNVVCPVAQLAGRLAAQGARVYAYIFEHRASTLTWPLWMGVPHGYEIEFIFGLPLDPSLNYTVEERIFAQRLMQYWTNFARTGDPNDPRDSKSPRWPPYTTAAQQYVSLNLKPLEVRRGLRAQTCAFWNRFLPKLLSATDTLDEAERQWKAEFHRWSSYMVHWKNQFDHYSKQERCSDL
The test can be described thus: Inhibition of AChE in rat brain cortical homogenate. Type of test: tissue-based.

The nature of test [3]: Selectivity ratio of IC50 for AChE to IC50 for BChE.

The structures appear in SMILES notation. Counter-ions that a name gives are not always drawn.

Sequence of Acetylcholinesterase (Homo sapiens, UniProt P22303) (P22303 whole entry): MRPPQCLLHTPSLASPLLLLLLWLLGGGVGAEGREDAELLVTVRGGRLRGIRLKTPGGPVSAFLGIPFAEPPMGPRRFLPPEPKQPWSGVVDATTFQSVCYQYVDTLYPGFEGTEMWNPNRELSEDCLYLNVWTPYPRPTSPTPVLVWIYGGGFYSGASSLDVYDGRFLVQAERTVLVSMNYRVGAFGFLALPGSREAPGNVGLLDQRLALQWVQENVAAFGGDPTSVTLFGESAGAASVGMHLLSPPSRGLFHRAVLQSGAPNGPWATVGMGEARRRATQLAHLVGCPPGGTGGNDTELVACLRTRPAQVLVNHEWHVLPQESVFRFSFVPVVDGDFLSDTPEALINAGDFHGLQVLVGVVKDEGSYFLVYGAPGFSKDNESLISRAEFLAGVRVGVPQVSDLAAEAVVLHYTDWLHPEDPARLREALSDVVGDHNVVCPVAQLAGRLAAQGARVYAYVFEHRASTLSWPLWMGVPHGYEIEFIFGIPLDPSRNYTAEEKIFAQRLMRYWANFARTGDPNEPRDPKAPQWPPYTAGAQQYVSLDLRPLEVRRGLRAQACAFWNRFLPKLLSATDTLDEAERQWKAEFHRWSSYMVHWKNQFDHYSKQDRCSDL

In test [1], `COc1cc2c(C)c(OC)c(=O)oc2cc1OCCCCOc1cc(O)cc(N(C)C)c1` displayed a half-maximal inhibitory concentration (IC50) of 275 nM. On the same count and under the same terms, next, `COc1ccccc1NCc1cc(=O)oc2cc3oc4ccccc4c3cc12`: 190 nM.

Regarding `COc1cc2oc(=O)c(C)c(C)c2cc1OCCCN1CCN(c2ccccc2OC)CC1` [ENSACULIN HYDROCHLORIDE], it took 360 nM to reach half-maximal inhibition in test [2] (IC50). In test [1], `COc1cc2oc(=O)c(OCCCCOc3cc(O)cc(N(C)C)c3)c(C)c2cc1OC` yielded a half-inhibitory concentration (IC50) of 0.236 nM. In test [3], the Ratio IC50 was greater than 300000.

As a reminder, the IC50 is the midpoint of a concentration-inhibition curve. Higher therefore signals weaker potency in that assay.
